Test results: patent publication US4649203A, “Ketoalkylphospholipids” (Takeda Chemical Industries, Ltd., priority 1983, dated 1987)
Values after ≈ are worked out from the molar mass of the structure shown. Where two headings read alike, the source gives them in different places.

Key:
sarcoma 180 cells [1] = test: Antitumor activity, sarcoma 180, drug given 4 days before inoculation (Test Examples 1 and 7); format: in vivo, ICR mice; conditions: for Number of surviving animals/Number of animals tested: 47th day, conditions of Test Example 1; for life span prolonging ratio (T/C): ICR mice, 1 mg/mouse, 4 days before i.p. inoculation of 1×10^5 sarcoma 180 cells
Experimental: Four days later, 1×10^5 sarcoma 180 cells were inoculated intraperitoneally into each mouse. […] The compounds of Examples 1, 4 and 6 were tested under the same conditions as Test Example 1. The value of the number of surviving animals represents the number of animals which survived on the 47th day.

sarcoma 180 cells [2] = test: Antitumor activity, sarcoma 180, drug given after inoculation (Test Examples 2, 3 and 8); format: in vivo, ICR mice; conditions: for Number of surviving animals/Number of animals tested: 47th day, conditions of Test Example 2; for life span prolonging ratio (T/C): ICR mice, 0.33 mg/mouse at hour 1, day 1 and day 2 after i.p. sarcoma 180 inoculation
Source text: ICR mice (5 animals per group) were intraperitoneally inoculated with 1×10^5 sarcoma 180 cells per mouse. […] The life span prolonging ratio as compared with the control (no drug treatment) group was 206. […] The life span prolonging ratio was 257. […] The value of the number of surviving animals represents the number of animals which survived on the 47th day.

MM46 cells = test: Antitumor activity, MM46 (Test Example 6); format: in vivo, C3H/He mice; conditions: 5 animals per group; 0.25 mg/mouse i.p. 4 days before and 4 days after inoculation; controls all died within 21 days
Experimental: The compound of Example 7 was intraperitoneally administered to C3H/He mice (5 animals per group) in a dose of 0.25 mg/mouse for 4 consecutive days.
On the 5th day, 1×10^4 MM46 cells were intraperitoneally inoculated into each mouse, and the compound of Example 7 was again administered intraperitoneally to the mice in a dose of 0.25 mg/mouse for 4 days starting from day 1 after inoculation.

Meth A sacoma cells = test: Antitumor activity, Meth A sarcoma (Test Example 4); format: in vivo, Balb/C mice; conditions: 0.5 mg/mouse once daily for 5 days at site of inoculation; tumors weighed day 15
Experimental: Balb/C mice (5 animals per group) were each subcutaneously inoculated with 1×10^5 Meth A sacoma cells. Separately, a solution of the compound of Example 7 in physiological saline was administered to the mice at the site of inoculation in a dose of 0.5 mg/mouse once daily for 5 consecutive days starting from day 1 after tumor cell inoculation. On day 15, the tumor tissues were excised and weighed. The inhibition ratio as compared with the control group was 83%.

blood pressure = conditions: rat, in vivo, iv
Experimental: Seven-week-old male Spraugue-Dawley rats (200-290 g) were anesthesized by intraperitoneal administration of 60 mg/kg of pentobarbital sodium and the left carotid artery (for blood pressure measurement) and left femoral vein (for intravenous drug administration) were cannulated.

[3] = Toxicity testing, LD50 (Test Example 11); conditions: mouse, in vivo, ip; ICR mice, intraperitoneal, in physiological saline
Experimental: LD50 values were determined in ICR mice by intraperitoneally administering each test compound in the form of a solution in physiological saline.

P388 leukemia cells = test: Antitumor activity, P388 leukemia (Test Example 5); format: in vivo; conditions: CDF1 mice, 1 mg/mouse i.p. once per day for 14 days
Experimental: CDF1 mice (5 animals per group) were each intraperitoneally inoculated with 1×10^5 P388 leukemia cells. Separately, a solution of the compound of Example 7 in physiological saline was intraperitoneally administered to the mice in a dose of 1 mg/mouse once per day for 14 consecutive days starting from day 1 after tumor implantation. The life span prolonging ratio as compared with the control group was 140.

washed PRP (platelets) = test: Action on platelets: platelet aggregation caused by test drug (Test Example 9); format: cell-based; conditions: 3×10^-5 M, rabbit washed PRP, 37° C.
Experimental: A blood sample was taken from a male rabbit using a syringe containing 3.15% citric acid (1 to 9 volumes of blood) as anticoagulant, and centrifuged at 1000 rpm and room temperature for 10 minutes to give platelet rich plasma (PRP). The PRP was further centrifuged at 1400 rpm for 15 minutes. The platelet pellet thus obtained was suspended in Ca^++ -free Tyrode (containing 0.25% of gelatin). A 250 μl portion of the thus-prepared washed PRP was stirred at 37° C. for 2 minutes, then 25 μl of 0.2-0.5 mM Ca^++ solution was added and the mixture was further stirred for 30 seconds. Thereafter, the test drug was added in an amount sufficient to make a concentration of 3×10^-5M. Platelet aggregation was measured using an aggregation meter (Rigaku Denki).

PAF = test: Anti-PAF activity, inhibition of PAF-induced platelet aggregation (Test Example 14); format: cell-based; conditions: Oryctolagus cuniculus, 3×10^-5 M, rabbit washed PRP, read-out: percentage inhibition of maximum aggregation due to PAF
Experimental: A blood sample was taken directly from a male rabbit using a syringe containing 3.15% citric acid (1 to 9 volumes of blood) as anticoagulant, and centrifuged at 1000 rpm and room temperature for 10 minutes to give platelet rich plasma (PRP). The PRP was further centrifuged at 1400 rpm for 15 minutes. The platelet pellet thus obtained was suspended in Ca^++ -free Tyrode (containing 0.25% of gelatin). A 250-μl portion of the thus-prepared washed PRP was stirred at 37° C. for 2 minutes, then 25 μl of 0.2-0.5 mM Ca^++ solution was added and the mixture was further stirred for 30 seconds. Thereafter, the compound of Example 8 was added to a concentration of 3×10^-5 M. Platelet aggregation was measured with an aggregation meter (Rigaku Denki). The activity of the compound of Example 8 as determined in terms of percentage inhibition based on the maximum light transmittance (maximum aggregation) due to PAF in the control PRP was 94%.

platelets = conditions: Hanahan et al., Biochem. Biophys. Res. Commun., 99, 183 (1981); cited from earlier work
Botrytis cinerea = test: Antifungal activity, serial dilution method; format: cell-based; conditions: 1% glucose bouillon agar, read-out: MIC, Botrytis cinerea (gray mold)
Pyricularia oryzae = test: microbe, parasite or virus in culture; format: cell-based; conditions: read-out: MIC, Pyricularia oryzae (rice blast)
Sclerotinia sclerotiorum = test: Antifungal activity, serial dilution method; format: cell-based; conditions: 1% glucose bouillon agar, read-out: MIC, Sclerotinia sclerotiorum (kidney bean stem rot)
[4] = Adverse effects (general statement)
Tetrahymena pyriformis W = test: Microprotozoal growth inhibiting activity, liquid dilution method (Test Example 13); format: cell-based; conditions: 28° C., 44-48 hours, pH 7.0
Experimental: The compounds given in Table 4 were tested for microprotozoal growth inhibiting activity (expressed in terms of MIC) in Tetrahymena pyriformis W by the liquid dilution method by cultivating said test microorganism in a test medium [20 g of Tryptose peptone (Difco), 1 g of yeast extract, 2 g of glucose, 1000 ml of distilled water, 10 ml of 1M phosphate buffer, pH 7.0] at 28° C. for 44-48 hours.

Cercospora beticola = test: Antifungal activity, serial dilution method; format: cell-based; conditions: read-out: MIC, Cercospora beticola (sugar beat leaf spot)
Diaporthe citri = test: Antifungal activity, serial dilution method; format: cell-based; conditions: 1% glucose bouillon agar, read-out: MIC, Diaporthe citri (citrus melanose)
Elsinoe fawcetti = test: Antifungal activity, serial dilution method; format: cell-based; conditions: 1% glucose bouillon agar; read-out: MIC, Elsinoe fawcetti (citrus scab)

Structure (SMILES) | Number of surviving animals/Number of animals tested (sarcoma 180 cells [1]) | life span prolonging ratio (T/C) (sarcoma 180 cells [1]) | Number of surviving animals/Number of animals tested (sarcoma 180 cells [2]) | life span prolonging ratio (T/C) (sarcoma 180 cells [2]) | Hypotensive action [duration] (blood pressure) | Hypotensive action ΔP (blood pressure) | LD50 [3] | MIC (Botrytis cinerea) | MIC (Pyricularia oryzae) | MIC (Sclerotinia sclerotiorum) | MIC (Tetrahymena pyriformis W) | other results
CCCCCCCCCCCCCCCC(=O)COCC(COP(=O)([O-])OCC[N+](C)(C)C)OC (centres unmarked) [Example 1, 3-(2-Oxoheptadecyloxy)-2-methoxypropyl 2-trimethylammonioethyl phosphate] | 0/5 | 290 | 0/5 | 340 |  |  |  |  |  |  |  | 
CCCCCCCCCCCCCCC(=O)COCC(COP(=O)([O-])OCC[N+](C)(C)C)OC (centres unmarked) [Example 4, 3-(2-Oxohexadecyloxy)-2-methoxypropyl 2-trimethylammonioethyl phosphate] | 0/5 | 224 | 0/5 | 230 |  |  |  |  |  |  |  | 
CCCCCCCCCCCCCCCCCCC(=O)COCC(COP(=O)([O-])OCC[N+](C)(C)C)OC (centres unmarked) [Example 6, 3-(2-Oxoeicosyloxy)-2-methoxypropyl 2-trimethylammonioethyl phosphate] | 1/5 | 236 | 0/5 | 338 |  |  |  |  |  |  |  | 
CCCCCCCCCCCCCCCCC(=O)COCC(COP(=O)([O-])OCC[N+](C)(C)C)OC (centres unmarked) [Example 7, 3-(2-Oxooctadecyloxy)-2-methoxypropyl 2-trimethylammonioethyl phosphate] |  | 180 |  | 206 | < 30 s | -5 mmHg | > 150 mg/kg |  |  |  |  | animals survived on day 46 (MM46 cells): 4 animals; inhibition ratio (tumor weight) as compared with control group (Meth A sacoma cells): 83%; blood pressure decrease (in words) (blood pressure): no observable blood pressure decrease; life span prolonging ratio as compared with the control group (P388 leukemia cells): 140; platelet aggregation (in words) (washed PRP (platelets)): did not cause aggregation at all; platelet aggregation (in words) (washed PRP (platelets); listed as drawing 39): No aggregation
CCCCCCCCCCCCCCCCC(=O)COCC(COP(=O)([O-])OCC[n+]1ccsc1)OC (centres unmarked) [Example 8, 3-(2-Oxooctadecyloxy)-2-methoxypropyl 2-thiazolioethyl phosphate] |  |  |  | 257 | < 30 s | -3 mmHg | > 150 mg/kg |  |  |  |  | blood pressure decrease (in words) (blood pressure): no observable blood pressure decrease; inhibition at 30 µM (PAF): 94%
CCCCCCCCCCCCCCCCCCOCC(COP(=O)([O-])OCC[N+](C)(C)C)OC (centres unmarked) [compound (XIII), reference compound] |  | 170 |  |  | 270 s | -43 to -75 mmHg | 25 to 50 mg/kg | 25 µg/mL (≈ 47.7 µM) | 6.25 µg/mL (≈ 11.9 µM) | > 100 µg/mL | 1 µg/mL (≈ 1.91 µM) | platelet aggregating activity (in words) (platelets): platelet aggregating activity; adverse effects (in words) [4]: hypotensive activity and local irritation (necrosis) is also noted
CCCCCCCCCCCCCCCCC(=O)COCC(COP(=O)([O-])OCC[N+](C)(C)C)OC (centres unmarked) [drawing 44] |  |  |  |  |  |  |  |  |  |  | 0.4 µg/mL (≈ 0.744 µM) | 
CCCCCCCCCCCCCCCCC(=O)COCC(COP(=O)([O-])OCC[n+]1ccsc1)OC (centres unmarked) [drawing 45] |  |  |  |  |  |  |  |  |  |  | 1 to 2 µg/mL (≈ 1.77 to 3.55 µM) | 
CCCCCCCCCCCCCCCCC(=O)COCC(COP(=O)([O-])OCC[N+](C)(C)C)OC (centres unmarked) [drawing 49] |  |  |  |  |  |  |  | 6.25 µg/mL (≈ 11.6 µM) | 3.12 µg/mL (≈ 5.8 µM) | 25 µg/mL (≈ 46.5 µM) |  | MIC (Cercospora beticola): 3.12 µg/mL (≈ 5.8 µM); MIC (Diaporthe citri): 6.25 µg/mL (≈ 11.6 µM); MIC (Elsinoe fawcetti): 6.25 µg/mL (≈ 11.6 µM)
CCCCCCCCCCCCCCCCC(=O)COCC(COP(=O)([O-])OCC[n+]1ccsc1)OC (centres unmarked) [drawing 51] |  |  |  |  |  |  |  | 100 µg/mL (≈ 177 µM) | 3.12 µg/mL (≈ 5.53 µM) | 25 µg/mL (≈ 44.3 µM) |  | MIC (Cercospora beticola; 1% glucose bouillon agar): 12.5 µg/mL (≈ 22.2 µM); MIC (Diaporthe citri): 12.5 µg/mL (≈ 22.2 µM); MIC (Elsinoe fawcetti): 12.5 µg/mL (≈ 22.2 µM)
